Experiments:
[1] = test system: antibiotic-induced damage; conditions: tumor cells and normal host tissues; cited from earlier work
[2] = test system: antibiotic-induced free radical-mediated damage; conditions: humans; cited from earlier work
[3] = Doxorubicin lethality, CD2 F1 mice; assay type: in vivo
heart = test: Cardiac evaluation / heart damage score and autopsy, Study No. 1 (Example II); assay type: in vivo, Balb/c female mice
Source text: A pathologist examined the heart of each mouse without prior knowledge of whether the animal received doxorubicin or placebo and methylene blue ur placebo. Cages were inspected twice daily for dead animals and autopsies were done immediately. The animals' hearts were washed in normal saline, fixed in formalin and embedded in glycol methacrylate. One-micron sections were inspected by light microscopy. The condition of the hearts was scored as follows: normal-1; slightly damaged-2; moderately damaged-3; severely damaged-4. Five specific categories or criteria were utilized for this evaluation: vacuolization; myofibrillar and nuclear degeneration; necrosis; interstitial edema; and interstitial inflammation. The numerical scores were averaged for each heart to yield an overall tabulation of damage.
In the course of this study, the cages were inspected twice daily for dead animals, and within twelve hours of death an autopsy was performed upon each animal that died. The heart was excised, inspected, washed in normal saline and fixed in 10% formalin. Upon terminatiun of this study, animals which had received no doxorubicin were killed by cervical dislocation and their hearts were handled in accordance with the procedures outlined earlier above.
Nonetheless, this difference in mean value was not statistically significant at the 5% level (f=2.3, p<0.1 and>0.05).

doxorubicin lethality [4] = test: Effect of lesser doses of methylene blue on doxorubicin toxicity, survival (Example III)
Description: (§1) Mice were obtained from Laboratory Supply Company, Inc., Indianapolis, Indiana. […] The light was maintained between 6:00 in the morning and 6:00 at night, and food and water were freely available. The rooms the mice were maintained in were sound insulated and kept at a constant relative humidity with a temperature ranging between 23° and 25° C. All animals were kept undisturbed except for a weekly cage cleaning, for 21 to 28 days after receipt from the animal supplier and prior to the experimentation. Four mice of the same sex were kept in each cage because of the well-known effects of isolation upon various biologic parameters. […] (See, Levi, F., Halberg, F., Haus, E., Sanchez, S., Sothern, R. B., Halberg, E., Hrushesky, W., Brown, H., Scheving, L. E., and Kennedy, B. J., "Synethetic Adrenocorticotropin for Optimizing Murine Circadian Chronotolerance for Adriamycin", CHRONOBIOLOGIA. 7(#2):227-244 (1980)).
(§2) The anthracycline antibiotic doxorubicin (NDC 38242-874-10, obtained from Adria Laboratories, Inc., Columbus, Ohio) was prepared to a concentration of 2 mg/ml in saline immediately prior to administration to the mice. Administration was by injection either intravenously through a transilluminated tail vein or intraperitoneally. The doxorubicin was administered in an amount per body weight of mouse of 18 mg/kg.
T-tests were used when comparing variances between two groups. When the variance of means were compared among several groups, analysis of variance was used. Multivariate mean analysis was used when comparing groups of individuals sharing common characteristics which were anticipated might possibly affect the outcome of the statistical analysis. […] Chi-square analyses were used to compare survival percentages between and among various treatment groups at appropriate truncation points. Gehan-Wilcoxon Life Table Analyses were used to complement multivariate survival analyses in order to properly weight long-term survivors.

[5] = Doxorubicin lethality, Balb/c mice; set-up: species or system Balb/c female mice; conditions: mouse, in vivo
cellular proteins = test: Examination of tissues after doxorubicin administration; conditions: tissues subsequent to doxorubicin administration
Source text: The present inventor has likewise reasoned that the reduction of the oxidant stress-inducing antibiotics may be promoted by interaction with either NADH or NADPH, or their reducing proteins. […] It is therefore possible that the oxidation of NADH or NADPH may occur indirectly by the interaction of the antibiotic with these reducing proteins acting as mediators, either in addition to or in place of a direct interaction between the antibiotic and NADH or NADPH alone.

L1210 leukemia cells = test: Effect of methylene blue on anti-neoplastic activity of doxorubicin (Example IV); assay type: in vivo, CD2 F1 female mice
Description: A strain of leukemia identified as L1210 was obtained from Arthur Bogden of the E. G. Mason Research Institute Animal and Human Tumor Bank, Worcester, Massachusetts. The tumor was kept in passage in DBA female mice. The tumor used for the below described experiments was between its tenth and twentieth in vivo passage. […] The tumor grows in ascites, which is initially clear and proceeds, within the 24 to 36 hours prior to death, to become hemorrhagic.
Accordingly, it was determined to assess tne anti-tumor efficacy of doxorubicin administered with and without methylene blue. For these studies, 120, 12 to 14 week old female CD2 F1 mice were each given 70,000 live L1210 leukemia cells 4 hours after the lights were turned on in the cages. The mice were then randomly assigned to one of seven treatment groups.

doxorubicin lethality [6] = test: Effects of methylene blue on anthracycline toxicity, survival, Study No. 1 (Example II)
[7] = as above; conditions: mouse, in vivo, 18 mg/kg
[8] = test system: cardiac submitochondrial particles; conditions: cited from earlier work
[9] = cited from earlier work
microsomal systems = conditions: from NADPH and NADH; cited from earlier work
doxorubicin lethality [10] = test: Effects of methylene blue on doxorubicin toxicity, survival, Study No. 2 (Example II)
Description: as §1, §2
T-tests were used when comparing variances between two groups. […]

[11] = test system: hepatic microsomes and heart sarcosomes; conditions: cited from earlier work
hepatic GSH = test: Effect of methylene blue on hepatic GSH levels (Example I); assay type: in vivo, CD2 F1 female mice; conditions: 25 mg methylene blue iv; 4 h; 33 week old; n=9; saline 15.03±4.33; f=6.03, p<0.03
Description: Total glutathione, oxidized and reduced (GSSG and GSH respectively), was determined by a modification of the method of Tietze (Tietze, F., ANAL. BIOCHE., 27:502-522 (1969). GSH was determined by the method of Prins and Loos (Prins, H. K. and Loos, J. A., "In Biochemical Methods in Red Cell Genetics", J. Yunis, ed., Academic Press, New York, (1969)).
Because maintenance of GSH is an NADPH-dependent process, decrements in intracellular NADPH were postulated to lead to a decrease in GSH concentration. […] Hepatic GSH was similarly observed and noted to behave in corresponding fashion.

in vivo = conditions: mouse, 550 mg/kg
[12] = previous studies in mice, dogs and humans; cited from earlier work

SMILES: CC(=O)N[C@@H](CS)C(=O)O [N-acetyl cysteine]
- protection from antibiotic-induced damage [1]: mixed results

SMILES: Cc1c(C)c2c(c(C)c1O)CCC(C)(CCCC(C)CCCC(C)CCCC(C)C)O2 (stereo not drawn) [Vitamin E, α-tocopherol]
- effect on antibiotic-induced damage at tolerable doses [2]: failed to work at tolerable doses in humans

SMILES: COc1cccc2c1C(=O)c1c(O)c3c(c(O)c1C2=O)C[C@@](O)(C(=O)CO)C[C@@H]3O[C@H]1C[C@H](N)[C@H](O)[C@H](C)O1 [doxorubicin, 14-hydroxydaunomycin]
- survival of CD2 F1 relative to Balb/c mice ([3]; 18 mg/kg iv, compared with Balb/c mice): more than 3 times longer
- mortality at 720 h ([3]; mouse, in vivo, 18 mg/kg ip, 30 days, CD2 F1, read-out: mortality within 30 days, intraperitoneal): > 80%
- mortality ([3]; mouse, in vivo, 18 mg/kg iv, CD2 F1): ~100%
- visual appearance of hearts (heart; animals receiving doxorubicin): often pale and had a patchy fibrotic appearance
- most prominent heart finding (heart; animals which did not receive methylene blue): degeneration of myocytes
- pleural fluid, pulmonary consolidation and ascites (heart; autopsy, animals which had received doxorubicin): often present
- heart damage score, without methylene blue (heart; doxorubicin 18 mg/kg, no methylene blue, normal score=1.0, f=2.3, p<0.1 and >0.05): 2.8±1.3
- average survival, doxorubicin intraperitoneally (doxorubicin lethality [4]; doxorubicin 18 mg/kg ip, f=27.4, p<0.001): 6.2 ± 0.8 days
- average survival, saline placebo (doxorubicin lethality [4]; doxorubicin 18 mg/kg iv or ip plus saline placebo, f=10.8, p<0.001): 7.2 ± 0.6 days
- mortality (doxorubicin lethality [4]; doxorubicin 18 mg/kg iv or ip, with methylene blue or saline): All of the mice succumbed to doxorubicin
- average survival, doxorubicin intravenously (doxorubicin lethality [4]; doxorubicin 18 mg/kg iv, f=27.4, p<0.001): 11.2 ± 0.6 days
- mortality at 720 h ([5]; 18 mg/kg ip, 30 days, Balb/c female, read-out: mortality within 30 days, intraperitoneal): 100%
- mortality ([5]; 18 mg/kg iv, Balb/c): ~100%
- complexation with cellular proteins (cellular proteins): some complexation
- survival, doxorubicin and placebo (L1210 leukemia cells; 70,000 L1210 cells, doxorubicin and placebo): 14.4 ± 1.2 days
- increased life span (L1210 leukemia cells; single doxorubicin treatment 3 days after tumor implantation, F=124, p<0.001): 160%
- effect of route of administration of doxorubicin (doxorubicin lethality [6]; doxorubicin 18 mg/kg iv vs ip, two-way analysis of variance): no significant effect of the particular route of administration
- mortality at 360 h [7]: > 50%
- superoxide formation [8]: stimulates superoxide formation
- solubility [9]: soluble in water, methanol and other aqueous alcohols but is practically insoluble in acetone, benzene, chloroform, ethyl ether and petroleum ether
- free radical production (microsomal systems): causes the production of free radicals
- mean survival time, without methylene blue (doxorubicin lethality [10]; doxorubicin 18 mg/kg iv plus placebo, truncated at 130 days, n=7): 85 ± 7 days
- oxygen consumption [11]: increases oxygen consumption

SMILES: CN(C)c1ccc2nc3ccc(=[N+](C)C)cc-3sc2c1 [methylene blue, methylthionine chloride]
- pleural fluid, pulmonary consolidation and ascites (heart; animals killed after saline and/or methylene blue only): never
- visual appearance of hearts (heart; animals not receiving doxorubicin (saline and/or methylene blue)): appeared visually normal
- heart damage score, with methylene blue (heart; doxorubicin 18 mg/kg plus methylene blue iv, normal score=1.0, f=2.3, p<0.1 and >0.05 (not significant)): 1.8±0.9
- average survival, with methylene blue (doxorubicin lethality [4]; doxorubicin 18 mg/kg iv or ip plus methylene blue 25 mg/kg iv, f=10.8, p<0.001): 10.3 ± 1 days
- mean hepatic GSH levels (hepatic GSH): 9.30±5.50 μMol/g protein
- survival, doxorubicin followed by methylene blue (L1210 leukemia cells; 70,000 L1210 cells, doxorubicin followed by methylene blue 25 mg/kg iv 30 min after, then sc 1.5-48 h): 14.7 ± 0.5 days
- survival, methylene blue without doxorubicin (doxorubicin lethality [6]; saline and methylene blue iv, no doxorubicin, study follow-up period): lived throughout the study follow-up period
- mortality (in vivo): 50%
- tolerability at 25 mg/kg [12]: well tolerated
- average survival, with methylene blue (doxorubicin lethality [10]; doxorubicin 18 mg/kg iv plus methylene blue 4 x 25 mg/kg (iv, then ip 1, 3, 6 h), 130 days, n=8, t=4.0, p<0.001): 113 ± 0.5 days

From patent publication US4548927A, “Method and agents for raising animal tolerance to oxidant stress-inducing antibiotics” (priority 1983, dated 1985)
